Experimental data: PubChem BioAssay (NCI)
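The compound was tested at five concentrations on cells cultured in 96-well plates, with a 48-hour exposure period. TGI denotes the concentration required for complete inhibition of growth.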

Tests used:
Assay in all cases: NCI anticancer screen, dose series, 48 h
786-0 renal = test system: 786-0 renal
A498 renal = test system: A498 renal
A549 NSCLC = test system: A549 NSCLC
ACHN renal = test system: ACHN renal
BT-549 breast = test system: BT-549 breast
CAKI-1 renal = test system: CAKI-1 renal
CCRF-CEM leukemia = test system: CCRF-CEM leukemia
COLO 205 colon = test system: COLO 205 colon
DU-145 prostate = test system: DU-145 prostate
EKVX NSCLC = test system: EKVX NSCLC
HCC-2998 colon = test system: HCC-2998 colon
HCT-116 colon = test system: HCT-116 colon
HCT-15 colon = test system: HCT-15 colon
HL-60(TB) leukemia = test system: HL-60(TB) leukemia
HOP-62 NSCLC = test system: HOP-62 NSCLC
HOP-92 NSCLC = test system: HOP-92 NSCLC
HS 578T breast = test system: HS 578T breast
HT29 colon = test system: HT29 colon
IGROV1 ovarian = test system: IGROV1 ovarian
K-562 leukemia = test system: K-562 leukemia
KM12 colon = test system: KM12 colon
LOX IMVI melanoma = test system: LOX IMVI melanoma
M14 melanoma = test system: M14 melanoma
MALME-3M melanoma = test system: MALME-3M melanoma
MCF7 breast = test system: MCF7 breast
MDA-MB-231 breast = test system: MDA-MB-231 breast
MDA-MB-435 = test system: MDA-MB-435
MDA-N = test system: MDA-N
MOLT-4 leukemia = test system: MOLT-4 leukemia
NCI-H226 lung = test system: NCI-H226 lung
NCI-H23 lung = test system: NCI-H23 lung
NCI-H460 lung = test system: NCI-H460 lung
NCI-H522 lung = test system: NCI-H522 lung
NCI/ADR-RES ovarian = test system: NCI/ADR-RES ovarian
OVCAR-3 ovarian = test system: OVCAR-3 ovarian
OVCAR-4 ovarian = test system: OVCAR-4 ovarian
OVCAR-5 ovarian = test system: OVCAR-5 ovarian
OVCAR-8 ovarian = test system: OVCAR-8 ovarian
PC-3 prostate = test system: PC-3 prostate
RPMI-8226 leukemia = test system: RPMI-8226 leukemia
RXF 393 renal = test system: RXF 393 renal
SF-268 CNS = test system: SF-268 CNS
SF-295 CNS = test system: SF-295 CNS
SF-539 CNS = test system: SF-539 CNS
SK-MEL-2 melanoma = test system: SK-MEL-2 melanoma
SK-MEL-28 melanoma = test system: SK-MEL-28 melanoma
SK-MEL-5 melanoma = test system: SK-MEL-5 melanoma
SK-OV-3 ovarian = test system: SK-OV-3 ovarian
SN12C renal = test system: SN12C renal
SNB-19 CNS = test system: SNB-19 CNS
SNB-75 CNS = test system: SNB-75 CNS
SR leukemia = test system: SR leukemia
SW-620 colon = test system: SW-620 colon
T-47D breast = test system: T-47D breast
TK-10 renal = test system: TK-10 renal
U251 CNS = test system: U251 CNS
UACC-257 melanoma = test system: UACC-257 melanoma
UACC-62 melanoma = test system: UACC-62 melanoma
UO-31 renal = test system: UO-31 renal

COc1ccc2nc3c([N+](=O)[O-])ccc4c3c(c2c1)N(CCCN(C)C)C(=S)N4CCCN(C)C was tested, and the TGI (786-0 renal) was 15.7 µM, the TGI (A498 renal) was 33.5 µM and the TGI (A549 NSCLC) was 22.2 µM. The TGI (ACHN renal) was 17.9 µM, the TGI (BT-549 breast) was 30.8 µM and the TGI (CAKI-1 renal) was 29.1 µM. The TGI (CCRF-CEM leukemia) was > 100 µM, the TGI (COLO 205 colon) was 6.01 µM and the TGI (DU-145 prostate) was 20.2 µM. The TGI (EKVX NSCLC) was 31 µM, the TGI (HCC-2998 colon) was 10.1 µM and the TGI (HCT-116 colon) was 15.9 µM. For the same compound, the TGI (HCT-15 colon) was 28.7 µM, the TGI (HL-60(TB) leukemia) was > 100 µM and the TGI (HOP-62 NSCLC) was 22.7 µM. For the same compound, the TGI (HOP-92 NSCLC) was 21.3 µM, the TGI (HS 578T breast) was 31.1 µM and the TGI (HT29 colon) was 11.2 µM. The TGI (IGROV1 ovarian) was 24.3 µM, the TGI (K-562 leukemia) was > 40 µM and the TGI (KM12 colon) was 10.2 µM. For the same compound, the TGI (LOX IMVI melanoma) was 14.4 µM, the TGI (M14 melanoma) was 20.4 µM and the TGI (MALME-3M melanoma) was 12.4 µM. It also gave a TGI (MCF7 breast) of 19.2 µM, a TGI (MDA-MB-231 breast) of 22.6 µM and a TGI (MDA-MB-435) of 19.1 µM. The TGI (MDA-N) was 21.3 µM, the TGI (MOLT-4 leukemia) was > 100 µM and the TGI (NCI-H226 lung) was 22.4 µM. It also gave a TGI (NCI-H23 lung) of 30 µM, a TGI (NCI-H460 lung) of 9.75 µM and a TGI (NCI-H522 lung) of 7.58 µM. For the same compound, the TGI (NCI/ADR-RES ovarian) was 24.4 µM, the TGI (OVCAR-3 ovarian) was 21.2 µM and the TGI (OVCAR-4 ovarian) was 70.7 µM. For the same compound, the TGI (OVCAR-5 ovarian) was 34.6 µM, the TGI (OVCAR-8 ovarian) was 21.5 µM and the TGI (PC-3 prostate) was 18 µM. It also gave a TGI (RPMI-8226 leukemia) of 22.8 µM, a TGI (RXF 393 renal) of 22.9 µM and a TGI (SF-268 CNS) of 35.3 µM. It also gave a TGI (SF-295 CNS) of 19.5 µM, a TGI (SF-539 CNS) of 22 µM and a TGI (SK-MEL-2 melanoma) of 34.2 µM. For the same compound, the TGI (SK-MEL-28 melanoma) was 37.4 µM, the TGI (SK-MEL-5 melanoma) was 12.3 µM and the TGI (SK-OV-3 ovarian) was 34.4 µM. The TGI (SN12C renal) was 19.2 µM, the TGI (SNB-19 CNS) was 25.8 µM and the TGI (SNB-75 CNS) was 29.3 µM. The TGI (SR leukemia) was > 100 µM, the TGI (SW-620 colon) was 16.4 µM and the TGI (T-47D breast) was 43 µM. It also gave a TGI (TK-10 renal) of 23.8 µM, a TGI (U251 CNS) of 20.2 µM and a TGI (UACC-257 melanoma) of 15.5 µM. It also gave a TGI (UACC-62 melanoma) of 34.4 µM and a TGI (UO-31 renal) of 25.9 µM.

For CC(C)OC(=O)c1ccc(CCc2cc(O)c(Br)cc2O)cc1, the TGI (786-0 renal) was 25.4 µM, the TGI (A498 renal) was 41.8 µM and the TGI (A549 NSCLC) was 44.8 µM. It also gave a TGI (ACHN renal) of 31.9 µM, a TGI (BT-549 breast) of 30 µM and a TGI (CAKI-1 renal) of 25 µM. The TGI (CCRF-CEM leukemia) was 14.3 µM, the TGI (COLO 205 colon) was 28.7 µM and the TGI (DU-145 prostate) was 28.6 µM. It also gave a TGI (EKVX NSCLC) of 29.4 µM, a TGI (HCC-2998 colon) of 29.6 µM and a TGI (HCT-116 colon) of 25.3 µM. It also gave a TGI (HCT-15 colon) of 14 µM, a TGI (HL-60(TB) leukemia) of 38.9 µM and a TGI (HOP-62 NSCLC) of 24.7 µM. For the same compound, the TGI (HOP-92 NSCLC) was 35.2 µM, the TGI (HS 578T breast) was 42.1 µM and the TGI (HT29 colon) was 37.4 µM. For the same compound, the TGI (IGROV1 ovarian) was 23.1 µM, the TGI (K-562 leukemia) was > 58.9 µM and the TGI (KM12 colon) was 18.1 µM. The TGI (LOX IMVI melanoma) was 20.8 µM, the TGI (M14 melanoma) was 29.9 µM and the TGI (MALME-3M melanoma) was 31.1 µM. The TGI (MCF7 breast) was 29.4 µM, the TGI (MDA-MB-231 breast) was 26.7 µM and the TGI (MDA-MB-435) was 20.8 µM. It also gave a TGI (MDA-N) of 24 µM, a TGI (MOLT-4 leukemia) of 52.1 µM and a TGI (NCI-H226 lung) of 39.8 µM. The TGI (NCI-H23 lung) was 22.8 µM, the TGI (NCI-H460 lung) was 34.5 µM and the TGI (NCI-H522 lung) was 23.8 µM. It also gave a TGI (NCI/ADR-RES ovarian) of 25.5 µM, a TGI (OVCAR-3 ovarian) of 19.5 µM and a TGI (OVCAR-4 ovarian) of 5.54 µM. It also gave a TGI (OVCAR-5 ovarian) of 31.8 µM, a TGI (OVCAR-8 ovarian) of 29.5 µM and a TGI (PC-3 prostate) of 19.2 µM. For the same compound, the TGI (RPMI-8226 leukemia) was 8.18 µM, the TGI (RXF 393 renal) was 28.3 µM and the TGI (SF-268 CNS) was 25.6 µM. It also gave a TGI (SF-295 CNS) of 32.3 µM, a TGI (SF-539 CNS) of 15.7 µM and a TGI (SK-MEL-2 melanoma) of 26.7 µM. For the same compound, the TGI (SK-MEL-28 melanoma) was 26.9 µM, the TGI (SK-MEL-5 melanoma) was 28.3 µM and the TGI (SK-OV-3 ovarian) was 35.6 µM. For the same compound, the TGI (SN12C renal) was 28.9 µM, the TGI (SNB-19 CNS) was 27.9 µM and the TGI (SNB-75 CNS) was 46.5 µM. For the same compound, the TGI (SR leukemia) was 64.9 µM, the TGI (SW-620 colon) was 22 µM and the TGI (T-47D breast) was 53.2 µM. The TGI (TK-10 renal) was 30.6 µM, the TGI (U251 CNS) was 17.5 µM and the TGI (UACC-257 melanoma) was 26.4 µM. For the same compound, the TGI (UACC-62 melanoma) was 34.4 µM and the TGI (UO-31 renal) was 10.2 µM.
